Values after ≈ are worked out from the molar mass of the structure shown. Like-named read-outs stand apart in the source and are kept apart here.
Columns and labels:
Assay type in all cases: cell-based
[1] = test system: Fusarium virguliforme (Fv); assay: In vitro pathogen growth inhibition assay, Fv
Summary of the method: (§1)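 Value reported is the compound concentration reaching ≥90% growth inhibition, from OD readings at 24 and 48 h after blank subtraction, confirmed visually. Inoculum was spores diluted in 17% V8 medium, except Rs, using 1.5 mm mycelial plugs in ¼ PDB; actual compound concentration corrected via OD600.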

Rhizoctonia solani (Rs) = assay: In vitro pathogen growth inhibition assay, Rs (mycelial plugs); conditions: Rhizoctonia solani, 48 h
Summary of the method: as §1

[2] = test system: Fusarium moniliforme (Fm); assay: In vitro pathogen growth inhibition assay, Fm; conditions: Fusarium verticillioides
Summary of the method: (§2)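 Spores in 17% V8 liquid medium, or 1.5 mm Rs mycelial plugs in ¼ PDB, incubated with compound; final concentration checked by OD600 for precipitation. OD readings at 24 and 48 h, blank-subtracted, plus visual ratings; value is concentration giving ≥90% growth inhibition.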

[3] = test system: Collectotrichum graminicola (Cg); assay: In vitro pathogen growth inhibition assay, Cg; conditions: 48 h
Summary of the method: as §2

[4] = test system: Phytophthora capsici (Pc); assay: In vitro pathogen growth inhibition assay, Pc; conditions: 48 h
Summary of the method: as §1

Botrtyis cinerea (Bc) = assay: In vitro pathogen growth inhibition assay, Bc; conditions: 48 h
Summary of the method: as §2

Diplodia maydis (Dm) = assay: In vitro pathogen growth inhibition assay, Dm; conditions: Stenocarpella maydis, 48 h
Summary of the method: as §1

Septoria tritici (St) = assay: In vitro pathogen growth inhibition assay, St; conditions: Zymoseptoria tritici, 48 h
Summary of the method: as §2

[5] = ≥90% growth inhibition, 48 hours, vs 2% DMSO control, read-out: Compound Concentration (ppm) sufficient for ≥90% inhibition of Fv
[6] = ≥90% growth inhibition, mycelial plugs, 48 hours, vs 2% DMSO control, read-out: Compound Concentration (ppm) sufficient for ≥90% inhibition of Rs
[7] = ≥90% growth inhibition, 48 hours, vs 2% DMSO control, read-out: Compound Concentration (ppm) sufficient for ≥90% inhibition of Fm
[8] = ≥90% growth inhibition, 48 hours, vs 2% DMSO control, read-out: Compound Concentration (ppm) sufficient for ≥90% inhibition of Cg
[9] = ≥90% growth inhibition, 48 hours, vs 2% DMSO control, read-out: Compound Concentration (ppm) sufficient for ≥90% inhibition of Pc
[10] = ≥90% growth inhibition, 48 hours, vs 2% DMSO control, read-out: Compound Concentration (ppm) sufficient for ≥90% inhibition of Bc
[11] = ≥90% growth inhibition, 48 hours, vs 2% DMSO control, read-out: Compound Concentration (ppm) sufficient for ≥90% inhibition of Dm
[12] = ≥90% growth inhibition, 48 hours, vs 2% DMSO control, read-out: Compound Concentration (ppm) sufficient for ≥90% inhibition of St

| SMILES | IC90 [1, 5] | IC90 (Rhizoctonia solani (Rs); [6]) | IC90 [2, 7] | IC90 [3, 8] | IC90 [4, 9] | IC90 (Botrtyis cinerea (Bc); [10]) | IC90 (Diplodia maydis (Dm); [11]) | IC90 (Septoria tritici (St); [12]) | IC90 ([1]; concentration sufficient to ≥90% inhibition of growth, 48 hours vs 2% DMSO control, read-out: Compound Concentration (ppm) for ≥90% inhibition, Fv) | IC90 (Rhizoctonia solani (Rs); concentration sufficient to ≥90% inhibition of growth, 48 hours vs 2% DMSO control, read-out: Compound Concentration (ppm) for ≥90% inhibition, Rs) | IC90 ([2]; concentration sufficient to ≥90% inhibition of growth, 48 hours vs 2% DMSO control, read-out: Compound Concentration (ppm) for ≥90% inhibition, Fm) | IC90 ([3]; concentration sufficient to ≥90% inhibition of growth, 48 hours vs 2% DMSO control, read-out: Compound Concentration (ppm) for ≥90% inhibition, Cg) | IC90 ([4]; concentration sufficient to ≥90% inhibition of growth, 48 hours vs 2% DMSO control, read-out: Compound Concentration (ppm) for ≥90% inhibition, Pc) | IC90 (Botrtyis cinerea (Bc); concentration sufficient to ≥90% inhibition of growth, 48 hours vs 2% DMSO control, read-out: Compound Concentration (ppm) for ≥90% inhibition, Bc) | IC90 (Diplodia maydis (Dm); concentration sufficient to ≥90% inhibition of growth, 48 hours vs 2% DMSO control, read-out: Compound Concentration (ppm) for ≥90% inhibition, Dm) | IC90 (Septoria tritici (St); concentration sufficient to ≥90% inhibition of growth, 48 hours vs 2% DMSO control, read-out: Compound Concentration (ppm) for ≥90% inhibition, St) |
| --- | --- | --- | --- | --- | --- | --- | --- | --- | --- | --- | --- | --- | --- | --- | --- | --- |
| CCc1ccc(F)cc1[C@H](Cn1c(=O)n(C(C)(C)C(=O)NC(C)C)c(=O)c2c(C)c(-n3nccn3)sc21)OCC(C)(C)C#N [Compound I-279] | 0.08 µg/mL (≈ 0.128 µM) | 0.08 µg/mL (≈ 0.128 µM) | 0.08 µg/mL (≈ 0.128 µM) | 0.08 µg/mL (≈ 0.128 µM) | > 50 µg/mL | 0.08 µg/mL (≈ 0.128 µM) | 2 µg/mL (≈ 3.21 µM) | > 50 µg/mL |  |  |  |  |  |  |  |  |
| CCc1ccc(F)cc1[C@H](Cn1c(=O)n(C(C)(C)C(=O)NC(C)C)c(=O)c2c(C)c(-n3nccn3)sc21)O[C@H]1C[C@@H](O)C1 [Compound I-280] | 0.4 µg/mL (≈ 0.653 µM) | 0.08 µg/mL (≈ 0.131 µM) | 0.08 µg/mL (≈ 0.131 µM) | 2 µg/mL (≈ 3.26 µM) | 50 µg/mL (≈ 81.6 µM) | 2 µg/mL (≈ 3.26 µM) | 2 µg/mL (≈ 3.26 µM) | ≥ 50 µg/mL |  |  |  |  |  |  |  |  |
| Cc1c(-n2nccn2)sc2c1c(=O)n(C(C)(C)C(=O)NC(C)C)c(=O)n2C[C@H](OCCC#N)c1cc(F)ccc1O [Compound I-282] | 2 µg/mL (≈ 3.43 µM) | 0.4 µg/mL (≈ 0.685 µM) | 0.4 µg/mL (≈ 0.685 µM) | 2 µg/mL (≈ 3.43 µM) | 10 µg/mL (≈ 17.1 µM) | 2 µg/mL (≈ 3.43 µM) | ≥ 10 µg/mL | > 50 µg/mL |  |  |  |  |  |  |  |  |
| Cc1c(-n2cccn2)sc2c1c(=O)n(C(C)(C)C(=O)NC(C)C)c(=O)n2C[C@H](OCCC#N)c1cc(F)ccc1O [Compound I-283] | 10 µg/mL (≈ 17.2 µM) | 2 µg/mL (≈ 3.43 µM) | 2 µg/mL (≈ 3.43 µM) | 50 µg/mL (≈ 85.8 µM) | > 50 µg/mL | 10 µg/mL (≈ 17.2 µM) | > 50 µg/mL | > 50 µg/mL |  |  |  |  |  |  |  |  |
| COc1ccc(F)cc1[C@H](Cn1c(=O)n(C(C)(C)C(=O)NC(C)C)c(=O)c2c(C)c(-n3cccn3)sc21)OCCS(C)(=O)=O [Compound I-286] | 2 µg/mL (≈ 3.08 µM) | 2 µg/mL (≈ 3.08 µM) | 2 µg/mL (≈ 3.08 µM) | 2 µg/mL (≈ 3.08 µM) | ≥ 50 µg/mL | 2 µg/mL (≈ 3.08 µM) | ≥ 50 µg/mL | > 50 µg/mL |  |  |  |  |  |  |  |  |
| CCNC(=O)[C@H](C)n1c(=O)c2c(C)c(-n3nccn3)sc2n(C[C@H](OCCC#N)c2cc(F)ccc2OC)c1=O [Compound I-290] | 10 µg/mL (≈ 17.6 µM) | 2 µg/mL (≈ 3.51 µM) | 0.4 µg/mL (≈ 0.702 µM) | 10 µg/mL (≈ 17.6 µM) | > 50 µg/mL | 2 µg/mL (≈ 3.51 µM) | ≥ 10 µg/mL | > 50 µg/mL |  |  |  |  |  |  |  |  |
| CCNC(=O)C(C)(C)n1c(=O)c2c(C)c(-n3nccn3)sc2n(C[C@@H](O)c2cc(F)ccc2OC)c1=O [Compound I-291] |  |  |  |  |  |  |  |  | 50 µg/mL (≈ 94.2 µM) | 2 µg/mL (≈ 3.77 µM) | 10 µg/mL (≈ 18.8 µM) | > 50 µg/mL | > 50 µg/mL | 50 µg/mL (≈ 94.2 µM) | 50 µg/mL (≈ 94.2 µM) | > 50 µg/mL |
| COCCO[C@@H](Cn1c(=O)n(C(C)(C)C(=O)NC2CCCCC2)c(=O)c2c(C)c(-n3cccn3)sc21)c1cc(F)ccc1OC [Compound I-293] | 50 µg/mL (≈ 77.9 µM) | > 50 µg/mL | 2 µg/mL (≈ 3.12 µM) | > 50 µg/mL | > 50 µg/mL | 10 µg/mL (≈ 15.6 µM) | > 50 µg/mL | > 50 µg/mL |  |  |  |  |  |  |  |  |
| COc1ccccc1CCn1c(=O)n(C(C)(C)C(=O)NC(C)C)c(=O)c2c(C)c(-n3nccn3)sc21 [Compound I-294] | 0.08 µg/mL (≈ 0.157 µM) | 2 µg/mL (≈ 3.92 µM) | 0.4 µg/mL (≈ 0.783 µM) | 10 µg/mL (≈ 19.6 µM) | > 50 µg/mL | 0.4 µg/mL (≈ 0.783 µM) | 10 µg/mL (≈ 19.6 µM) | > 50 µg/mL |  |  |  |  |  |  |  |  |
| CCNC(=O)[C@@H](C)n1c(=O)c2c(C)c(-n3cccn3)sc2n(C[C@H](OCCC#N)c2cc(F)ccc2OC)c1=O [Compound I-295] | 2 µg/mL (≈ 3.52 µM) | 2 µg/mL (≈ 3.52 µM) | 0.4 µg/mL (≈ 0.703 µM) | 2 µg/mL (≈ 3.52 µM) | > 50 µg/mL | 2 µg/mL (≈ 3.52 µM) | 10 µg/mL (≈ 17.6 µM) | > 50 µg/mL |  |  |  |  |  |  |  |  |
| COc1ccc(F)cc1CCn1c(=O)n(C(C)(C)C(=O)NC(C)C)c(=O)c2c(C)c(-n3nccn3)sc21 [Compound I-296] | 2 µg/mL (≈ 3.78 µM) | 2 µg/mL (≈ 3.78 µM) | 2 µg/mL (≈ 3.78 µM) | 2 µg/mL (≈ 3.78 µM) | > 50 µg/mL | 2 µg/mL (≈ 3.78 µM) | 10 µg/mL (≈ 18.9 µM) | > 50 µg/mL |  |  |  |  |  |  |  |  |
| CCNC(=O)[C@@H](C)n1c(=O)c2c(C)c(C(=O)OCC)sc2n(C[C@H](OCCC#N)c2cc(F)ccc2OC)c1=O [Compound I-297] | > 50 µg/mL | > 50 µg/mL | 2 µg/mL (≈ 3.48 µM) | 10 µg/mL (≈ 17.4 µM) | > 50 µg/mL | 10 µg/mL (≈ 17.4 µM) | > 50 µg/mL | > 50 µg/mL |  |  |  |  |  |  |  |  |
| CCOC(=O)c1sc2c(c1C)c(=O)n(C(C)(C)C(=O)NC(C)C)c(=O)n2CCc1cc(F)ccc1OC [Compound I-298] | 2 µg/mL (≈ 3.75 µM) | > 50 µg/mL | 2 µg/mL (≈ 3.75 µM) | 10 µg/mL (≈ 18.7 µM) | > 50 µg/mL | 2 µg/mL (≈ 3.75 µM) | ≥ 10 µg/mL | > 50 µg/mL |  |  |  |  |  |  |  |  |
| COCCO[C@@H](Cn1c(=O)n(C(C)(C)C(=O)NC2CCC2)c(=O)c2c(C)c(-n3cccn3)sc21)c1cc(F)ccc1OC [Compound I-299] | 2 µg/mL (≈ 3.26 µM) | 50 µg/mL (≈ 81.5 µM) | 0.4 µg/mL (≈ 0.652 µM) | 10 µg/mL (≈ 16.3 µM) | > 50 µg/mL | 2 µg/mL (≈ 3.26 µM) | 50 µg/mL (≈ 81.5 µM) | > 50 µg/mL |  |  |  |  |  |  |  |  |
| Cc1c(-n2nccn2)sc2c1c(=O)n(C(C)(C)C(=O)NC(C)C)c(=O)n2C[C@H](OCCC#N)c1ccccc1O [Compound I-301] | ≥ 2 µg/mL | 10 µg/mL (≈ 17.7 µM) | 2 µg/mL (≈ 3.54 µM) | > 50 µg/mL | > 50 µg/mL | 10 µg/mL (≈ 17.7 µM) | > 50 µg/mL | > 50 µg/mL |  |  |  |  |  |  |  |  |
| CCNC(=O)C(C)(C)n1c(=O)c2c(C)c(C(=O)OCC)sc2n(C[C@H](OCCC#N)c2cc(F)ccc2O)c1=O [Compound I-302] | 2 µg/mL (≈ 3.48 µM) | 0.08 µg/mL (≈ 0.139 µM) | ≥ 2 µg/mL | 50 µg/mL (≈ 87 µM) | > 50 µg/mL | 10 µg/mL (≈ 17.4 µM) | 50 µg/mL (≈ 87 µM) | > 50 µg/mL |  |  |  |  |  |  |  |  |
| CCOC(=O)c1sc2c(c1C)c(=O)n(C(C)(C)C(=O)NC(C)C)c(=O)n2C[C@H](OCC(C)(C)C#N)c1ccccc1OC [Compound I-303] | 2 µg/mL (≈ 3.26 µM) | 2 µg/mL (≈ 3.26 µM) | 0.08 µg/mL (≈ 0.131 µM) | 2 µg/mL (≈ 3.26 µM) | > 50 µg/mL | 0.4 µg/mL (≈ 0.653 µM) | ≥ 2 µg/mL | > 50 µg/mL |  |  |  |  |  |  |  |  |
